Measurements published in patent US20110129868A1, “CELL CAPABLE OF REPLICATING NOVEL HCV REPLICON, CELL CAPABLE OF REPLICATING FULL-LENGTH HCV RNA, AND USE OF THOSE CELLS” (priority 2008, published 2011).
Where two headings read alike, the source gives them in different places.

Experiments:
[1] = system: full-length HCV RNA replication in OR6 cells; assay: microbe, parasite or virus in culture; format: cell-based, HCV-O strain (genotype 1b)
From the text: (§1) Renilla luciferase was quantified by collecting cells using a Renilla Luciferase Assay System (Promega) according to the manufacturer's experiment protocol.
An OR6-cell assay system was used as a control.

[2] = system: full-length HCV RNA replication in ORL11 cells; assay: microbe, parasite or virus in culture; format: cell-based, HCV-O strain (genotype 1b)
Protocol: as §1
(§2) Luciferase activity of each cell line was then measured at hour 24, 48, and 72. […] SD values were calculated based on the results from three samples at each point. […]

[3] = system: full-length HCV RNA replication in ORL8 cells; assay: microbe, parasite or virus in culture; format: cell-based, HCV-O strain (genotype 1b); conditions: for EC50: Hepatitis C virus
Protocol: as §1, §2

[4] = system: ORL8 cells; assay: cell count by trypan blue staining, ORL8 cells; format: cell-based, human; conditions: drug at the concentration corresponding to the EC50 value
[5] = system: OR6 cells; assay: cell count by trypan blue staining, OR6 cells; format: cell-based, human; conditions: drug at the concentration corresponding to the EC50 value
[6] = system: ORL11 cells; assay: cell count by trypan blue staining, ORL11 cells; format: cell-based, human
[7] = system: HCV replicon of Con1 strain; conditions: cited from earlier work
[8] = system: full-length HCV RNA replication in OR6 cells; conditions: OR6 cell assay system (Naka et al., BBRC 2005); cited from earlier work
[9] = system: ORL8, ORL11, and OR6 cells; assay: cell count / cytotoxicity check, cell lines not itemised; conditions: at a concentration of 12.5 μM
Protocol: In order to ascertain that the decrease in luciferase activity in response to the addition of ribavirin was not due to the cell growth inhibition or cytotoxicity by ribavirin, the cells were cultured under the same conditions used for the luciferase assay, and counted using a trypan blue staining technique. The effect of adding ribavirin in the concentration corresponding to the EC50 value of each cell line was examined.
FLV (Calbiochem, 344095) was used.

[10] = in vivo; cited from earlier work
[11] = Hepatitis C virus, OR6 cells, luciferase activity after 72 hours, read-out: EC50
[12] = Hepatitis C virus, 72 h, luciferase activity after 72 hours, read-out: EC50
[13] = ORL8 cells, luciferase activity after 72 hours, read-out: EC50
[14] = ORL11 cells, drug at the concentration corresponding to the EC50 value, trypan blue
[15] = OR6 cells, drug concentrations based on the EC50 values
[16] = drug concentrations based on the EC50 values
[17] = ORL8 cells, drug concentrations based on the EC50 values

Molecule: CC[C@H](C)C(=O)O[C@H]1C[C@@H](C)C=C2C=C[C@H](C)[C@H](CC[C@@H]3C[C@@H](O)CC(=O)O3)[C@H]21 [LOV, Lovastatin]
- EC50 [1, 11]: 3 µM
- EC50 [2, 12]: 1.04 µM
- EC50 [3, 13]: 1.49 µM

Molecule: CC(=O)Oc1ccccc1C(=O)O [ASA, Acetylsalicylic Acid]
- EC50 ([1]; Hepatitis C virus, OR6, 72 h): 2160 µM
- cell count over the control cells [4]: 53%
- EC50 ([2]; Hepatitis C virus, 72 h, luciferase activity after 72 hours): 1170 µM
- EC50 ([3]; ORL8, 72 h): 1330 µM
- cell count over the control cells [5]: 51%
- cell count over the control cells [6, 14]: 72%
- EC50 ([7]; HCV replicons of Con1 strain (Trujillo-Murillo et al.)): 4000 µM

Molecule: COC1=C2C[C@@H](C)C[C@H](OC)[C@H](O)[C@@H](C)/C=C(\C)[C@H](OC(N)=O)[C@@H](OC)/C=C\C=C(/C)C(=O)NC(=CC1=O)C2=O [Geldanamycin]
- EC50 [1, 11]: 0.0021 µM
- EC50 [2, 12]: 0.00331 µM
- EC50 [3, 13]: 0.00257 µM

Molecule: O=C(O)C[C@H](O)C[C@H](O)/C=C/c1c(C2CC2)nc2ccccc2c1-c1ccc(F)cc1 [PTV, Pitavastatin]
- EC50 [1, 11]: 0.46 µM
- luciferase activity after treatment (single agent or combined use) [1, 15]: 56%
- cell count over the control cells [4]: ≥ 80%
- EC50 [2, 12]: 0.16 µM
- luciferase activity after treatment (single agent or combined use) [2, 16]: 49%
- EC50 [3, 13]: 0.45 µM
- luciferase activity after treatment (single agent or combined use) [3, 17]: 43%
- cell count over the control cells [5]: ≥ 80%
- cell count over the control cells [6, 14]: ≥ 80%

Molecule: NC(=O)c1ncn([C@@H]2O[C@H](CO)[C@@H](O)[C@H]2O)c1O [Mizoribine]
- luciferase activity (value relative to no drug) ([1]; OR6 cells, at 200 μM, after 72 hours): above 50%
- EC50 [2, 12]: 76.5 µM
- EC50 [3, 13]: 58.8 µM

Molecule: CC(C)n1c(/C=C/C(O)CC(O)CC(=O)O)c(-c2ccc(F)cc2)c2ccccc21 (stereo not drawn) [FLV, Fluvastatin]
- EC50 ([1]; Hepatitis C virus, OR6 cells, FLV from a different manufacturer (LKT laboratories Inc., F4482), read-out: EC50): 1.44 µM
- EC50 [1, 11]: 1.22 µM
- luciferase activity after treatment (single agent or combined use) [1, 15]: 55%
- cell count over the control cells [4]: ≥ 97%
- EC50 ([2]; FLV from a different manufacturer (LKT laboratories Inc., F4482), read-out: EC50): 0.14 µM
- EC50 [2, 12]: 0.32 µM
- EC50 ([2]; Hepatitis C virus, FLV from a different manufacturer (LKT laboratories Inc., F4482), read-out: EC50): 0.11 µM
- luciferase activity after treatment (single agent or combined use) [2, 16]: 51%
- EC50 ([3]; ORL8 cells, FLV from a different manufacturer (LKT laboratories Inc., F4482), read-out: EC50): 0.31 µM
- EC50 [3, 13]: 0.28 µM
- luciferase activity after treatment (single agent or combined use) [3, 17]: 59%
- cell count over the control cells [5]: ≥ 97%
- cell count over the control cells [6, 14]: ≥ 97%

Molecule: NC(=O)c1ncn([C@@H]2O[C@H](CO)[C@@H](O)[C@H]2O)n1 [Ribavirin]
- EC50 [8]: 76 µM
- EC50 [1, 11]: 119 µM
- luciferase activity after treatment (single agent or combined use) ([1]; OR6 cells, IFN-α at 0.25 IU/ml, ribavirin): 97%
- cell count over the control cells [4]: ≥ 98%
- EC50 [2, 12]: 15.9 µM
- luciferase activity after treatment (single agent or combined use) ([2]; IFN-α at 0.25 IU/ml, ribavirin at 12.5 W): 49%
- EC50 [3, 13]: 10.1 µM
- luciferase activity after treatment (single agent or combined use) ([3]; ORL8 cells, IFN-α at 0.25 IU/ml, ribavirin): 35%
- cytotoxicity [9]: not recognized
- cell count over the control cells [5]: ≥ 98%
- cell count over the control cells [6, 14]: ≥ 98%
- blood concentrations [10]: 10 to 14 µM

Molecule: CCCCCCC(=O)CCCCCC/C=C/C[C@@H](O)[C@H](O)[C@@](N)(CO)C(=O)O [Myriocin]
- luciferase activity (relative to no drug) ([1]; OR6 cells, at 5 nM to 40 nM, after 72 hours, EC50 not calculable): below 60%
- cell count over the control cells [4]: 83.5%
- EC50 [2, 12]: 0.00362 µM
- EC50 [3, 13]: 0.00516 µM
- cell count over the control cells [5]: ≥ 91%
- cell count over the control cells [6, 14]: ≥ 91%
- EC50 ([7]; Con1 strain, analyzed 72 hours after the addition of the drug): 0.0058 µM

Molecule: CCC(C)(C)C(=O)O[C@H]1C[C@@H](C)C=C2C=C[C@H](C)[C@H](CC[C@@H]3C[C@@H](O)CC(=O)O3)[C@H]21 [SMV, Simvastatin]
- EC50 [1, 11]: 1.42 µM
- EC50 [2, 12]: 0.15 µM
- EC50 [3, 13]: 0.28 µM

B1: IFN-γ: interferon gamma (Sigma), pharmaceutical agent having an anti-HCV action (protein, UniProt P01579 24-161, looked up)
Interferon gamma: QDPYVKEAENLKKYFNAGHSDVADNGTLFLGILKNWKEESDRKIMQSQIVSFYFKLFKNFKDDQSIQKSVETIKEDMNVKFFNSNKKKRDDFEKLTNYSVTDLNVQRKAIHELIQVMAELSPAAKTGKRKRSQMLFRG
- EC50 ([1]; OR6 cells, luciferase activity after 72 hours): 0.21 IU/ml
- cell count over the control cells [4]: ≥ 90%
- EC50 (50% effective drug concentration) ([2]; luciferase activity after 72 hours): 0.13 IU/ml
- EC50 (50% effective drug concentration) ([3]; ORL8 cells, luciferase activity after 72 hours): 0.077 IU/ml
- cell count over the control cells [5]: ≥ 90%
- cell count over the control cells [6]: ≥ 90%
